# Reference: US20060069132A1, “Azolecarboxamide herbicides” (priority 2004, published 2006)
# Key:
# [1] = system: Surinam grass; test: Test B pre-/postemergence herbicide test; format: in vivo, Urochloa decumbens
# Method in brief: (§1)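 Response was scored visually 13 to 15 days after treatment against untreated greenhouse controls, 0 meaning no effect and 100 complete control. Formulations (solvent mixture plus surfactant) went onto soil after planting, onto foliage of 1- to 4-leaf plants, and onto 2-leaf plants in a flooded paddy set including rice and barnyardgrass.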
# [2] = system: cocklebur; test: Test B pre-/postemergence herbicide test; format: in vivo, Xanthium strumarium
# Method in brief: (§2)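 Formulation: non-phytotoxic solvent mix with surfactant. Timing: preemergence on seed and postemergence on 2–18 cm plants, applied concurrently. Readout after 13–15 d greenhouse: visual 0–100 control rating against controls.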
# [3] = system: barnyardgrass; test: Test B pre-/postemergence herbicide test; format: in vivo, Echinochloa crus-galli
# Method in brief: as §2
# [4] = system: wheat; test: Test B postemergence herbicide test; format: in vivo, Triticum aestivum; set-up: key to Wheat plant response rating: 0 = no effect, 100 = complete control
# Method in brief: (§3)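 Each value is a visual 0–100 response rating taken against controls 13 to 15 days after treatment in the greenhouse. Plants received formulated chemical postemergence at the 1- to 4-leaf stage or, in flooded paddy, at the 2-leaf stage.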
# [5] = system: rice; test: Test B flooded paddy test; format: in vivo, Oryza sativa; conditions: 1000 g ai/ha, scale 0 to 100 (0 no effect, 100 complete control)
# Method in brief: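 Postemergence plants were sprayed with formulated test chemicals at 2 to 18 cm height (1- to 4-leaf stage); paddy species were grown to the 2-leaf stage. After 13 to 15 days in a greenhouse, injury was rated visually against untreated controls on a 0–100 scale (0 = no effect, 100 = complete control).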
# [6] = system: velvetleaf; test: Test B pre-/postemergence herbicide test; format: in vivo, Abutilon theophrasti
# Method in brief: as §1
# [7] = system: wild oat; test: Test B postemergence herbicide test; format: in vivo, Avena fatua
# Method in brief: as §3
# [8] = system: barnyardgrass; test: Test B flooded paddy test; format: in vivo, Echinochloa crus-galli; conditions: 1000 g ai/ha, scale 0 to 100 (0 no effect, 100 complete control)
# Method in brief: (§4)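 Scale 0–100: zero equals no visible effect, 100 complete control, judged by eye relative to controls. Timing: 13 to 15 days in greenhouse post-treatment. Growth stage at spraying: two leaves (paddy) or one to four leaves, 2–18 cm (postemergence).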
# [9] = system: corn; test: Test B pre-/postemergence herbicide test; format: in vivo, Zea mays
# Method in brief: as §1
# [10] = system: lambsquarters; test: Test B pre-/postemergence herbicide test; format: in vivo, Chenopodium album
# Method in brief: as §1
# [11] = system: large crabgrass; test: Test B pre-/postemergence herbicide test; format: in vivo, Digitaria sanguinalis
# Method in brief: as §1
# [12] = system: pigweed; test: Test B pre-/postemergence herbicide test; format: in vivo, Amaranthus retroflexus
# Method in brief: as §1
# [13] = system: giant foxtail; test: Test B pre-/postemergence herbicide test; format: in vivo, Setaria faberi
# Method in brief: as §1
# [14] = system: ducksalad; test: Test B flooded paddy test; format: in vivo, Heteranthera limosa; conditions: 1000 g ai/ha, scale 0 to 100 (0 no effect, 100 complete control)
# Method in brief: as §4
# [15] = system: morningglory; test: Test B pre-/postemergence herbicide test; format: in vivo, Ipomoea coccinea
# Method in brief: as §2
# [16] = 125 g ai/ha, 0 is no effect, 100 is complete control, preemergence
# [17] = Postemergence, 500 g ai/ha, scale 0 (no effect) to 100 (complete control)
# [18] = postemergence, 125 g ai/ha, scale 0 to 100
# [19] = Postemergence, 125 g ai/ha, scale 0 (no effect) to 100 (complete control)
# [20] = Postemergence, 500 g ai/ha, visual rating after 13 to 15 days, scale 0 (no effect) to 100 (complete control)
# [21] = Preemergence, 500 g ai/ha, scale 0 to 100
# [22] = preemergence, 125 g ai/ha, 0 to 100 scale, 0 is no effect, 100 is complete control
# [23] = 500 g ai/ha, visual rating 0-100, 0 no effect, 100 complete control, preemergence
# [24] = postemergence, 125 g ai/ha, visual rating, scale 0 (no effect) to 100 (complete control)
# [25] = postemergence, 500 g ai/ha, visual rating, scale 0 (no effect) to 100 (complete control)
smiles,measurement,setting,value
CCc1nn(C(C)C)nc1C(=O)Nc1cccc(C(=S)N(C)C)c1 [Compound 409],"Plant response rating (0 to 100 scale), Surinam Grass",[1]; [16],90
same,Surinam Grass plant response rating,[1]; [17],30
same,Surinam Grass plant response rating,[1]; [18],10
same,"Plant response rating (0 to 100 scale), Cocklebur",[2]; [16],10
same,Cocklebur plant response rating,[2]; [17],10
same,Cocklebur plant response rating,[2]; [18],0
same,"Plant response rating (0 to 100 scale), Barnyardgrass",[3]; [16],90
same,Barnyardgrass plant response rating,[3]; [19],0
same,Barnyardgrass plant response rating,[3]; [17],0
same,Wheat plant response rating,"[4]; 500 g ai/ha, scale 0 to 100, 0 no effect, 100 complete control, preemergence",100
same,Wheat plant response rating,[4]; [17],10
same,Wheat plant response rating,[4]; [18],0
same,Rice plant response rating,[5],70
same,"Plant response rating (0 to 100 scale), Velvetleaf",[6]; [16],30
same,Velvetleaf plant response rating,[6]; [17],0
same,Velvetleaf plant response rating,[6]; [18],0
same,"Oat, Wild plant response rating",[7]; [17],10
same,"Oat, Wild plant response rating",[7]; [18],0
same,Barnyardgrass plant response rating,[8],90
same,"Plant response rating (0 to 100 scale), Corn",[9]; [16],50
same,Corn plant response rating,[9]; [17],10
same,Corn plant response rating,[9]; [18],0
same,"Plant response rating (0 to 100 scale), Lambsquarters",[10]; [16],100
same,Lambsquarters plant response rating,[10]; [17],70
same,Lambsquarters plant response rating,[10]; [18],30
same,"Plant response rating (0 to 100 scale), Crabgrass, Large",[11]; [16],90
same,"Crabgrass, Large plant response rating",[11]; [17],10
same,"Crabgrass, Large plant response rating",[11]; [18],0
same,"Plant response rating (0 to 100 scale), Pigweed",[12]; [16],90
same,Pigweed plant response rating,[12]; [17],70
same,Pigweed plant response rating,[12]; [18],30
same,"Plant response rating (0 to 100 scale), Foxtail, Giant",[13]; [16],70
same,"Foxtail, Giant plant response rating",[13]; [17],20
same,"Foxtail, Giant plant response rating",[13]; [18],0
same,Ducksalad plant response rating,[14],70
same,"Plant response rating (0 to 100 scale), Morningglory",[15]; [16],60
same,Morningglory plant response rating,[15]; [17],70
same,Morningglory plant response rating,[15]; [18],0
CCn1nc(C(C)(C)C)cc1C(=O)Nc1cccc(C(=O)NC2CC2)c1 [Compound 44],"Plant response rating, Surinam Grass",[1]; [20],20
same,Surinam Grass plant response rating,[1]; [21],40
same,"Plant response rating, Surinam Grass",[1]; [22],0
same,Cocklebur plant response rating,[2]; [19],40
same,"Plant response rating, Cocklebur",[2]; [20],80
same,Cocklebur plant response rating,[2]; [21],20
same,Barnyardgrass plant response rating,[3]; [19],20
same,"Plant response rating, Barnyardgrass",[3]; [20],60
same,Barnyardgrass plant response rating,[3]; [21],100
same,"Plant response rating, Wheat",[4]; [20],20
same,Rice plant response rating,"[5]; visual rating, 13 to 15 days",70
same,"Plant response rating, Velvetleaf",[6]; [20],80
same,Velvetleaf plant response rating,[6]; [21],100
same,"Plant response rating, Velvetleaf",[6]; [22],20
same,"Oat, Wild plant response rating",[7]; [19],20
same,"Plant response rating, Oat, Wild",[7]; [20],20
same,Barnyardgrass plant response rating,"[8]; visual rating, 13 to 15 days",70
same,Corn plant response rating,[9]; [19],20
same,"Plant response rating, Corn",[9]; [20],30
same,Corn plant response rating,[9]; [21],0
same,Lambsquarters plant response rating,[10]; [19],80
same,"Plant response rating, Lambsquarters",[10]; [20],90
same,Lambsquarters plant response rating,[10]; [21],100
same,"Plant response rating, Lambsquarters",[10]; [22],80
same,"Crabgrass, Large plant response rating",[11]; [19],20
same,"Plant response rating, Crabgrass, Large",[11]; [20],90
same,"Crabgrass, Large plant response rating",[11]; [21],100
same,"Plant response rating, Pigweed",[12]; [20],100
same,Pigweed plant response rating,[12]; [21],100
same,"Plant response rating, Pigweed",[12]; [22],100
same,"Foxtail, Giant plant response rating",[13]; [19],20
same,"Plant response rating, Foxtail, Giant",[13]; [20],30
same,"Foxtail, Giant plant response rating",[13]; [21],70
same,"Plant response rating, Foxtail, Giant",[13]; [22],0
same,Ducksalad plant response rating,"[14]; visual rating, 13 to 15 days",70
same,Morningglory plant response rating,[15]; [19],30
same,"Plant response rating, Morningglory",[15]; [20],90
same,Morningglory plant response rating,[15]; [21],10
same,"Plant response rating, Morningglory",[15]; [22],0
CCOc1cccc(NC(=O)c2cc(C(C)(C)C)nn2CC)c1 [Compound 136],"Plant response rating, Surinam Grass",[1]; [23],90
same,Surinam Grass plant response rating,[1]; [24],20
same,Surinam Grass plant response rating,[1]; [25],70
same,"Plant response rating, Surinam Grass",[1]; [22],40
same,"Plant response rating, Cocklebur",[2]; [23],10
same,Cocklebur plant response rating,[2]; [24],100
same,Cocklebur plant response rating,[2]; [25],100
same,"Plant response rating, Cocklebur",[2]; [22],0
same,"Plant response rating, Barnyardgrass",[3]; [23],100
same,Barnyardgrass plant response rating,[3]; [24],50
same,Barnyardgrass plant response rating,[3]; [25],90
same,"Plant response rating, Barnyardgrass",[3]; [22],90
same,Wheat plant response rating,[4]; [24],20
same,Wheat plant response rating,[4]; [25],40
same,Rice plant response rating,"[5]; visual rating, 13 to 15 days",30
same,"Plant response rating, Velvetleaf",[6]; [23],100
same,Velvetleaf plant response rating,[6]; [24],60
same,Velvetleaf plant response rating,[6]; [25],70
same,"Plant response rating, Velvetleaf",[6]; [22],50
same,"Oat, Wild plant response rating",[7]; [24],50
same,"Oat, Wild plant response rating",[7]; [25],60
same,Barnyardgrass plant response rating,"[8]; visual rating, 13 to 15 days",60
same,"Plant response rating, Corn",[9]; [23],30
same,Corn plant response rating,[9]; [24],10
same,Corn plant response rating,[9]; [25],30
same,"Plant response rating, Corn",[9]; [22],10
same,"Plant response rating, Lambsquarters",[10]; [23],100
same,Lambsquarters plant response rating,[10]; [24],100
same,Lambsquarters plant response rating,[10]; [25],100
same,"Plant response rating, Lambsquarters",[10]; [22],100
same,"Plant response rating, Crabgrass, Large",[11]; [23],100
same,"Crabgrass, Large plant response rating",[11]; [24],10
same,"Crabgrass, Large plant response rating",[11]; [25],70
same,"Plant response rating, Crabgrass, Large",[11]; [22],100
same,"Plant response rating, Pigweed",[12]; [23],100
same,Pigweed plant response rating,[12]; [24],60
same,Pigweed plant response rating,[12]; [25],90
same,"Plant response rating, Pigweed",[12]; [22],100
same,"Plant response rating, Foxtail, Giant",[13]; [23],100
same,"Foxtail, Giant plant response rating",[13]; [24],10
same,"Foxtail, Giant plant response rating",[13]; [25],10
same,"Plant response rating, Foxtail, Giant",[13]; [22],80
same,Ducksalad plant response rating,"[14]; visual rating, 13 to 15 days",90
same,"Plant response rating, Morningglory",[15]; [23],70
same,Morningglory plant response rating,[15]; [24],20
same,Morningglory plant response rating,[15]; [25],100
same,"Plant response rating, Morningglory",[15]; [22],50
